Measurements taken from ChEMBL document CHEMBL1828564, “Design, synthesis and biological evaluation of novel 1,2,3,4-tetrahydroisoquinoline-3-carboxylic acid derivatives as aminopeptidase N/CD13 inhibitors” (Bioorg Med Chem, 2011).
Where a SMILES comes first, the peptide text is derived from it. [ ]: non-standard residue; d: D form. The star is where a group is joined. Hyp = O=C(O)[C@@H]1C[C@@H](O)CN1; Tic = O=C(O)[C@@H]1Cc2ccccc2CN1; Phg = N[C@H](C(=O)O)c1ccccc1; NHOH = ON*

Legend:
[1] = cells; conditions: Homo sapiens, ES-2, 48 h
Description: Antiproliferative activity against human ES2 cells after 48 hrs by MTT assay

[2] = system: MDA-MB-231; experiment: Antiproliferative activity against human MDA-MB-231 cells after 48 hrs by MTT assay; format: functional, cell-based; conditions: MDA-MB-231, 48 h
[3] = target: 72 kDa type IV collagenase (Homo sapiens, UniProt P08253); experiment: Inhibition of MMP2 after 30 mins
Sequence of 72 kDa type IV collagenase (P08253 whole entry): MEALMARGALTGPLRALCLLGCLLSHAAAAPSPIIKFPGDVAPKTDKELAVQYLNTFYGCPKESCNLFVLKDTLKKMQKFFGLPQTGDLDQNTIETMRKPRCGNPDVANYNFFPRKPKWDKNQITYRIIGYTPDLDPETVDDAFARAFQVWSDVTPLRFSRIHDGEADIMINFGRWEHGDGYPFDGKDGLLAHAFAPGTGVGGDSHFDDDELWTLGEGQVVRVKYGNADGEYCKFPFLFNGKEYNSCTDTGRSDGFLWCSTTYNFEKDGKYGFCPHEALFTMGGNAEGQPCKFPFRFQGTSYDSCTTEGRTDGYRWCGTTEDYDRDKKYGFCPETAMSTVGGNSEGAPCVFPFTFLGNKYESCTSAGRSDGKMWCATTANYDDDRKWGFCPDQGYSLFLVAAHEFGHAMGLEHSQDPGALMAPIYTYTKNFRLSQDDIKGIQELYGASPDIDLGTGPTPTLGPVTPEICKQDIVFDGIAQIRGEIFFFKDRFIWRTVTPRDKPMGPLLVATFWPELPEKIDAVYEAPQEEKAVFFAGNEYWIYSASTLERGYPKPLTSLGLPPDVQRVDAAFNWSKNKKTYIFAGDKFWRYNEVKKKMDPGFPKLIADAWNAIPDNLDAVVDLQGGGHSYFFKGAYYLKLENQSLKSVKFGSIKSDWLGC

[4] = target: T1, Aminopeptidase N (Sus scrofa, UniProt P15145); experiment: Inhibition of pig kidney microsome aminopeptidase N using L-Leu-p-nitroanilide substrate
T1 sequence (P15145 whole entry): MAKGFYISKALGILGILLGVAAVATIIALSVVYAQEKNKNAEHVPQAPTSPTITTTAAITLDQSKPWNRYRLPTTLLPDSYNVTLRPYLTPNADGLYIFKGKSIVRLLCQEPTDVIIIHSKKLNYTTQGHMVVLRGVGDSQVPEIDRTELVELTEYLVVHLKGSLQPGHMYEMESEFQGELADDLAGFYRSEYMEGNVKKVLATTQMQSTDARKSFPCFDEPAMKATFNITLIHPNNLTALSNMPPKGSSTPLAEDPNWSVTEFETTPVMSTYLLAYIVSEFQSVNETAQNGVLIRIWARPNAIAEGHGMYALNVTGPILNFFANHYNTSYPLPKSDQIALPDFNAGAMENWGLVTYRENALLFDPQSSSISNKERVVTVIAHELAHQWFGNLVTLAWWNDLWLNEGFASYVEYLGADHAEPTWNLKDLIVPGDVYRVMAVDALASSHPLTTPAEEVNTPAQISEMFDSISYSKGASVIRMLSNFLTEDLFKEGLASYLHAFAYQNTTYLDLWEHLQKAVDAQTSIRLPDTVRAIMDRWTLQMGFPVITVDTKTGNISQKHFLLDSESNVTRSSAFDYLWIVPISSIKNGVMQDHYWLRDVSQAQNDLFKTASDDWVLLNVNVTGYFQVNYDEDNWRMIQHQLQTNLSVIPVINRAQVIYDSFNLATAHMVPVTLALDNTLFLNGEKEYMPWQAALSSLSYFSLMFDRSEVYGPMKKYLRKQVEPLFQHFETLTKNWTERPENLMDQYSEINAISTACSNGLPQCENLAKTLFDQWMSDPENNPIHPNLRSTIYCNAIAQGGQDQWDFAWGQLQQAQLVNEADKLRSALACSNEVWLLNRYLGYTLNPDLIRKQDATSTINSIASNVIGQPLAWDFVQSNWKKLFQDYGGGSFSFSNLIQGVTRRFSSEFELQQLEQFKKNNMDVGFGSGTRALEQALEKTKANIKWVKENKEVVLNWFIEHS

[5] = target: Aminopeptidase N (Homo sapiens, UniProt P15144); experiment: Inhibition of aminopeptidase N in human ES2 cells assessed as L-Leu-p-nitroanilide hydrolysis; format: cell-based
Sequence of Aminopeptidase N (Homo sapiens, UniProt P15144) (P15144 whole entry): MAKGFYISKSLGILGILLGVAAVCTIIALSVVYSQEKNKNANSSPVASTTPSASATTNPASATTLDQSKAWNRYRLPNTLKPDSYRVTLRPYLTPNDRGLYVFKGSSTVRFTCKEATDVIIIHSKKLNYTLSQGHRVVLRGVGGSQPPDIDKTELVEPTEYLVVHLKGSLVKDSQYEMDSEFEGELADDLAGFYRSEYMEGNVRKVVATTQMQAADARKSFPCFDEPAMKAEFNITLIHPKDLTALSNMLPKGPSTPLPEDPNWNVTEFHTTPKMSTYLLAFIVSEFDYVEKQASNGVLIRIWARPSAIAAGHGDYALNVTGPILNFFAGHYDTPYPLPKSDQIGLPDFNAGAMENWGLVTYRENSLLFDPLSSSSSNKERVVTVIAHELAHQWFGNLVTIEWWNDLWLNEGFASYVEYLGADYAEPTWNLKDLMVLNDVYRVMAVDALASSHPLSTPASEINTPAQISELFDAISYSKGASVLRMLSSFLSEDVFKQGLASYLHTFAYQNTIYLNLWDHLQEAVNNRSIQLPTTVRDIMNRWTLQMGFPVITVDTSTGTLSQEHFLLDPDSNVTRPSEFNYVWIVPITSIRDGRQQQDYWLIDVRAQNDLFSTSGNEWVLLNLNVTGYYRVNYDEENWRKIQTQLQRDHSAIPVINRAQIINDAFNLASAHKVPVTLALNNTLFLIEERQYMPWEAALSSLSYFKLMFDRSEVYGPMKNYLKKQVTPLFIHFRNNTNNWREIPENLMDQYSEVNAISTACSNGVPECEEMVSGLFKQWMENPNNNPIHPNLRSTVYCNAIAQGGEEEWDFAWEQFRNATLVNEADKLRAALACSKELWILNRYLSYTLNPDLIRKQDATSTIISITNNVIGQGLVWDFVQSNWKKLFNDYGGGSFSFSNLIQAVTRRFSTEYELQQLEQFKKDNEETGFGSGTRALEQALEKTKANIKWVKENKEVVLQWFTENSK

| IC50 ([3]; read-out: IC50) [µM] | IC50 ([4]; read-out: IC50) [µM] | Compound | further results |
| --- | --- | --- | --- |
|  |  | CC(C)C[C@H](NC(=O)[C@@H](O)[C@H](N)Cc1ccccc1)C(=O)O [UBENIMEX] | IC50 [1]: 142 µM; IC50 [2]: 753 µM |
| 836 | 27.5 | CC(C)C[C@H](NC(=O)[C@@H]1Cc2ccccc2CN1)C(=O)NO (H-[Tic]-Leu-{NHOH}) |  |
| 463 | 83.8 | C[C@H](NC(=O)[C@@H]1Cc2ccccc2CN1)C(=O)NO (H-[Tic]-Ala-{NHOH}) |  |
| 166 | 8.77 | CSCC[C@H](NC(=O)[C@@H]1Cc2ccccc2CN1)C(=O)NO (H-[Tic]-Met-{NHOH}) |  |
|  | 20.4 | Cl.O=C(CN1C(=O)CC[C@H](NC(=O)[C@@H]2Cc3ccccc3CN2)C1=O)NO | IC50 [3]: Not Active |
| 517 | 37.1 | O=C(CCNC(=O)[C@@H]1Cc2ccccc2CN1)NO |  |
| 268 | 40.2 | O=C(N[C@@H](CO)C(=O)NO)[C@@H]1Cc2ccccc2CN1 (H-[Tic]-Ser-{NHOH}) |  |
|  | 481 | CC(C)C[C@H](NC(=O)[C@H](CC(C)C)NC(=O)[C@@H]1Cc2ccccc2CN1)C(=O)NO.Cl (H-[Tic]-Leu-Leu-{NHOH}) | IC50 [3]: Not Active |
| 540 | 9.39 | O=C(N[C@@H](Cc1ccc(O)cc1)C(=O)NO)[C@@H]1Cc2ccccc2CN1 (H-[Tic]-Tyr-{NHOH}) |  |
| 940 | 12.8 | O=C(N[C@@H](Cc1ccccc1)C(=O)NO)[C@@H]1Cc2ccccc2CN1 (H-[Tic]-Phe-{NHOH}) |  |
| 393 | 6.28 | O=C(N[C@H](C(=O)NO)c1ccccc1)[C@@H]1Cc2ccccc2CN1 (H-[Tic]-[Phg]-{NHOH}) | IC50 [5]: 32.7 µM; inhibition [5]: Dose-dependent effect; IC50 [1]: 174 µM; IC50 [2]: 591 µM |
| 307 | 36.6 | CC(C)[C@H](NC(=O)[C@@H]1Cc2ccccc2CN1)C(=O)NO (H-[Tic]-Val-{NHOH}) |  |
| 201 | 46.6 | C[C@@H](O)[C@H](NC(=O)[C@@H]1Cc2ccccc2CN1)C(=O)NO (H-[Tic]-Thr-{NHOH}) |  |
| 657 | 465 | CC(C)C[C@H](NC(=O)[C@@H]1Cc2ccccc2CN1)C(=O)N[C@@H](Cc1ccccc1)C(=O)NO (H-[Tic]-Leu-Phe-{NHOH}) |  |
| 157 | 104 | O=C(NO)[C@@H]1CCCN1C(=O)[C@@H]1Cc2ccccc2CN1 (H-[Tic]-Pro-{NHOH}) |  |
|  | 43.4 | Cl.O=C(N[C@@H](Cc1cc2ccccc2[nH]1)C(=O)NO)[C@@H]1Cc2ccccc2CN1 | IC50 [3]: Not Active |
| 249 | 21.7 | O=C(CNC(=O)[C@@H]1Cc2ccccc2CN1)NO (H-[Tic]-Gly-{NHOH}) |  |
| 252 | 44.5 | O=C(CCCNC(=O)[C@@H]1Cc2ccccc2CN1)NO |  |
|  | 435 | Cl.O=C(N[C@@H](Cc1ccccc1)C(=O)N[C@@H](Cc1ccccc1)C(=O)NO)[C@@H]1Cc2ccccc2CN1 (H-[Tic]-Phe-Phe-{NHOH}) | IC50 [3]: Not Active |
|  | 555 | CC(C)C[C@H](NC(=O)[C@H](Cc1ccccc1)NC(=O)[C@@H]1Cc2ccccc2CN1)C(=O)NO.Cl (H-[Tic]-Phe-Leu-{NHOH}) | IC50 [3]: Not Active |
| 672 |  | CC[C@H](C)[C@H](NC(=O)[C@@H]1Cc2ccccc2CN1)C(=O)NO.Cl (H-[Tic]-Ile-{NHOH}) | IC50 [4]: Not Active |
| 276 |  | Cl.O=C(NO)[C@@H]1C[C@@H](O)CN1C(=O)[C@@H]1Cc2ccccc2CN1 (H-[Tic]-[Hyp]-{NHOH}) | IC50 [4]: Not Active |
